Where “and” joins values, the source holds several entries; their conditions need not be identical. Equal values may be shown once.
Key:
Type in all cases: cell-based
mouse neutrophils [1] = assay: Isoluminol chemiluminescence ROS assay, mouse neutrophils; conditions: mean+/−SD
Procedure: (§1) Isoluminol-based chemiluminescence assays were performed in HGCa in the presence of horseradish peroxidase (HRP) and isoluminol (both from Sigma-Aldrich) in a temperature-controlled Multilabel Count Victor X5 (Perkin Elmer). Assays were run in dark 96 well plates precoated with 250 μg/ml human fibrinogen in HGCa containing (final concentration): 100 μM isoluminol and 8 U/ml HRP. After addition of 1×10^5 human neutrophils or 7.5×10^5 mouse neutrophils, plates were left at 37° C. for 5-10 min and the reaction started by addition of the stimulus. Light emission was recorded every minute.
(§2) We used the chemotactic peptide fMLP as positive control. […] Data are mean+/−SD for three independent experiments.
Data are mean+/−SD counts per second.

neutrophils = assay: Rapid adhesion of neutrophils, soluble versus fibrillary Aβ1-42; conditions: fMLP, concentration not given, mean+/−SD
Source text: Although two-times less efficient than the soluble form, fibrillary Aβ triggered a significant increase of rapid neutrophil adhesion on both ICAM-1 and fibrinogen (Table 8; data are expressed as the mean+/−SD of bound cells in 0.2 mm^2 from three independent experiments made in duplicate).

human primary PMNs = assay: Static adhesion of human primary PMNs to ICAM-1 with signaling inhibitors; conditions: 50 nM fMLP, 1 min
Procedure: As a model system, human primary PMNs were isolated form healthy donors stimulated to very rapid adhesion to purified human ICAM-1, ligand for the β2 integrins LFA-1 and Maci. fMLP (the classical chemoattractant) was the positive control. […] PMNs were treated for 30 min. with different concentrations of inhibitors followed by stimulation for 1 min with 50 nM fMLP or with 10 μM Aβ. The number of adherent cells was quantified by computer-assisted evaluation. Statistical analysis was SD.

human neutrophils [2] = assay: Rapid human neutrophil adhesion to ICAM-1, inhibition by bocMLF and PTx; conditions: 0.1 μM fMLP
Procedure: It is known that one of the receptors for Aβ is the receptor for fMLP, formylpeptide chemotactic receptor (FPR). To evaluate the contribution of this GPCR receptor on Aβ-dependent neutrophil adhesion, we inhibited its function using boc-MLF, a formyl-peptide chemotactic receptor antagonist. Human neutrophils were incubated for 2 minutes with buffer (control) or with oligomeric Aβ. 0.1 μM fMLP was used as a positive control. Values are expressed as the mean counts of bound cells in 0.2 mm^2 from three independent experiments in duplicate. Error bars represent SD. […] To exclude the possibility that rapid adhesion triggering was a consequence of a generic plasma membrane alteration due to the lipophilic nature of Aβ, we evaluated rapid adhesion in lymphocytes, which are known to lack fMLP receptors.

mouse neutrophils [3] = assay: Rapid adhesion of mouse neutrophils to fibrinogen and ICAM-1; conditions: fMLP 1 μM, mean+/−SD
Source text: (§3) All data are expressed as the mean+/−SD of bound cells in 0.2 mm^2 from three independent experiments made in duplicate.

LFA-1 = LFA-1 affinity state in human neutrophils (conformer-specific antibodies, cytofluorimetry); conditions: 0.1 μM, 10 s, mean fluorescence intensity, ctrl = 1
Source text: Neutrophil arrest is rapidly triggered by chemokines or other chemoattractants and is mediated by the binding of LFA-1 integrin to its vascular ligand ICAM-1. Ligation of specific heterotrimeric GPCRs by chemokines induces integrins to undergo a dramatic transition from a bent low-affinity conformation to extended intermediate- and high-affinity conformations, which leads to opening of the ligand-binding pocket. We hypothesized that Aβ may trigger intermediate and/or high affinity state of LFA-1 integrin and studied the effect of Aβ1-42 oligomers on human LFA-1 affinity using KIM127 and 327A conformer-specific antibodies for intermediate- and high-affinity state respectively.
The cells were stimulated for 10 s with 0.5 μmol/L of CXCL12, 0.1 μM fMLP, 20 μM Aβ1-42, or 20 μM Aβ42-1 under stirring at 37° C. After rapid washing, cells were stained with FITC-conjugated secondary polyclonal antibody and analyzed by cytofluorimetric quantification. Data are mean fluorescence intensity +/−SD from three independent experiments.

human neutrophils [4] = assay: Rapid adhesion of human neutrophils to fibrinogen and ICAM-1; conditions: 0.1 μM, mean+/−SD
Source text: as §3

human neutrophils [5] = assay: Isoluminol chemiluminescence ROS assay, human neutrophils; conditions: human neutrophils on fibrinogen, mean+/−SD
Procedure: One of the mechanisms of neuronal damage by beta-amyloid in Alzheimer's disease is the generation of reactive oxygen species (ROS). We determined whether Aβ1-42 oligomers induce ROS production in neutrophils by using a chemiluminescence assay.
as §1, §2

fMLP
ROS generation (chemiluminescence) (mouse neutrophils [1]; 1 min): 599 ± 199 counts per second
ROS generation (chemiluminescence) (mouse neutrophils [1]; 2 min): 231 ± 91 counts per second
ROS generation (chemiluminescence) (mouse neutrophils [1]; 3 min): 90 ± 17 counts per second
ROS generation (chemiluminescence) (mouse neutrophils [1]; 4 min): 65 ± 36 counts per second
ROS generation (chemiluminescence) (mouse neutrophils [1]; 5 min): 59 ± 54 counts per second
Rapid adhesion to Fibrinogen (neutrophils): 285.5 ± 14.6 bound cells in 0.2 mm^2
Rapid adhesion to ICAM-1 (neutrophils): 578.5 ± 66.5 bound cells in 0.2 mm^2
Adherent hPMNs to ICAM-1, fMLP, Mean, Control (no inhibitor) (human primary PMNs): 444.6 and 500.8 and 433.5 and 463.1 and 484.1 and 486.8
Neutrophil adhesion to ICAM-1, stimulus alone (Ctrl, no inhibitor) (human neutrophils [2]): 497.1 ± 33.3 bound cells in 0.2 mm^2 and 484.1 ± 39.7 bound cells in 0.2 mm^2
Rapid adhesion to Fibrinogen (mouse neutrophils [3]): 72.40 ± 14.33 bound cells in 0.2 mm^2
Rapid adhesion to ICAM-1 (mouse neutrophils [3]): 183.6 ± 23.9 bound cells in 0.2 mm^2
327A (high-affinity state of LFA-1) (LFA-1): 4.35 ± 0.63
KIM127 (intermediate-affinity state of LFA-1) (LFA-1): 2.94 ± 0.21
Rapid adhesion to Fibrinogen (human neutrophils [4]): 361.5 ± 88.2 bound cells in 0.2 mm^2
Rapid adhesion to ICAM-1 (human neutrophils [4]): 203.8 ± 29.2 bound cells in 0.2 mm^2
ROS generation (chemiluminescence) (human neutrophils [5]; 1 min): 908 ± 137
ROS generation (chemiluminescence) (human neutrophils [5]; 2 min): 783 ± 108
ROS generation (chemiluminescence) (human neutrophils [5]; 3 min): 515 ± 103
ROS generation (chemiluminescence) (human neutrophils [5]; 4 min): 325 ± 158
ROS generation (chemiluminescence) (human neutrophils [5]; 5 min): 272 ± 134

Source: patent US20210332139A1, “MODULATION OF LEUKOCYTE ACTIVITY IN TREATMENT OF NEUROINFLAMMATORY DEGENERATIVE DISEASE” (Leuvas Therapeutics, priority 2013, published 2021)
